“Also recorded” adds a separate entry of the source. Where two headings read alike, the source gives them in different places.
What was measured:
[1] = system: cocaine-induced stimulation; experiment: Interaction study: block of cocaine-induced locomotor stimulation (20 mg/kg cocaine IP) (Example 3); assay type: in vivo, Swiss-Webster mice; conditions: for ED50: Mus musculus, ip, read-out: AD50 (dose attenuating cocaine-induced stimulation by 50%)
Procedure: This interaction study was conducted using 16 Digiscan locomotor activity testing chambers as described in Example 2. […] When testing the effects of Compounds 6 and 7, mice were placed in the Digiscan apparatus twenty minutes after the injection of the test compound or vehicle.
FIGS. 9, 17 and 19 show average horizontal activity counts for the different treatment groups as a function of time. […] FIGS. 10, 18 and 20 show average horizontal activity counts/10 min for different treatment groups as a function of dose.
A one-way analysis of variance conducted on log10 horizontal activity counts for the selected time period indicated a significant overall effect for the treatment groups; F(4,35)=[…] for Compound 2; F(5,42)=[…] for Compound 6; and F((5,42)=8.96 p<0.5). […] All ps<0.05 are denoted in FIGS. 10, 18 and 20 with an asterisk.

male Swiss-Webster mice [2] = experiment: Dose response study of induced locomotor stimulation (Digiscan), 1 h session (Example 2); assay type: in vivo, Swiss-Webster mice (Hsd:ND4); conditions: IP; for Maximal Effect Relative to Cocaine / ED50: locomotor activity; for ED50: Mus musculus, 30-60 min period
Procedure: A dose response study of induced locomotor stimulation was conducted according to the following procedure. The study was conducted using a 16 or 32 Digiscan locomotor activity testing chambers (40.5×40.5×30.5 cm) housed in sets of two, within sound-attenuating chambers. A panel of infrared beams (16 beams) and corresponding photodetectors were located in the horizontal direction along the sides of each activity chamber. A 15-W incandescent light above each chamber provided dim illumination. Fans provided an 80-dB ambient noise level within the chamber. Separate groups of 8 non-habituated male Swiss-Webster mice (Hsd:ND4, aged 2-3 months) were injected via the intraperitoneal (IP) route with either vehicle (deionized water for Compounds 1-4, carboxymethylcellulose for Compound 6 or methyl cellulose for Compound 7)) or test compound (1, 2.5, 5, 10, 25 or 50 mg/kg for Compound 3; 1, 3, 10 and 30 mg/kg for Compounds 1, 2 and 4; 3, 10, 30 or 100 mg/kg for Compound 6; and 1, 3, 10, 30 and 100 mg/kg for Compound 7). Compounds 1-4 were injected immediately prior to locomotor activity testing. […] In all studies, horizontal activity (interruption of photocell beams) was measured for 1 hour within 10 minute periods. Testing was conducted with one mouse per activity chamber.
FIGS. 1, 3, 5 and 7 show average horizontal activity counts/10 minutes as a function of time, immediately following injection of Compound 1, Compound 2, Compound 3 and Compound 4, respectively. FIGS. 13 and 15 show average horizontal activity counts/10 minutes as a function of time, beginning twenty minutes following injection of Compound 6 and Compound 7, respectively. The period 30-60 minutes was selected for analysis of dose-response data. Using TableCurve 2D v2.03 software (Jandel Scientific), the mean average horizontal activity counts/10 minutes for this period were fit to a 3-parameter logistic peak function of log10 dose (with the constant set to 1989, the mean of the vehicle-treated group), and the maximum effect estimated from the resulting curve. […] FIGS. 2, 4, 6, 8, 14 and 16 show average horizontal activity counts/10 minutes over 30 minutes versus the amount administered of Compound 1, Compound 2, Compound 3, Compound 4, Compound 6 and Compound 7, respectively.

male Swiss-Webster mice [3] = experiment: Time course study of locomotor stimulation over 8 hours (Example 6); assay type: in vivo, Swiss-Webster mice (Hsd:ND4); conditions: for Maximum effect (horizontal activity) / Dose of maximum effect: logistic peak fit; for ED50: Mus musculus, ip, read-out: ED50 (dose producing one half maximal stimulant activity)
Procedure: A dose response study of induced locomotor stimulation was conducted according to the following procedure. The study was conducted using 16 Digiscan locomotor activity testing chambers (40.5×40.5×30.5 cm) housed in sets of two, within sound-attenuating chambers. A panel of infrared beams (16 beams) and corresponding photodetectors were located in the horizontal direction along the sides of each activity chamber. A 7.5-W incandescent light above each chamber provided dim illumination. Fans provided an 80-dB ambient noise level within the chamber. Separate groups of 8 non-habituated male Swiss-Webster mice (Hsd:ND4, aged 2-3 months) were injected via the intraperitoneal (IP) route with either vehicle (0.9% saline) or test compound (5, 10, 20 or 40 mg/kg), immediately prior to locomotor activity testing. In all studies, horizontal activity (interruption of photocell beams) was measured for 8 hours within 10 minute periods, beginning at […]) two hours after lights on). Testing was conducted with one mouse per activity chamber.
Stimulant effects of 10, 20 and 40 mg/kg occurred within 10 minutes following injection and lasted up to 3 hours. […] Using TableCurve 2D v2.03 software (Jandel Scientific), the mean average horizontal activity counts for this 30-min period were fit to a 3-parameter logistic peak function of log10 dose (with the constant set to 3172, the mean of the saline-treated group), and the maximum was estimated from the resulting curve (maximum=6059 counts/10 min at 18.3 mg/kg).
Separate groups of eight mice were injected with either vehicle (deionized water) or Compound 2 (1, 3, 10 pr 30 mg/kg) immediately prior to locomotor activity testing.
Stimulant effects occurred within 40 to 70 minutes following injection and lasted 4 to ≥7 hours. The time period 280-310 min was selected for analysis of dose-response data because this was the time period in which maximal stimulant effects first appeared as a function of dose. Using TableCurve 2D v2.03 software (Jandel Scientific), the mean average horizontal activity counts/10 min for this period were fit to a 3-parameter logistic peak function of log10 dose (with the constant set to 399, the mean of the vehicle-treated group), and the maximum effect estimated from the resulting curve (maximum=4581 counts/10 min at 12.9 mg/kg).

squirrel monkeys = experiment: Locomotor response in primates (Example 5); assay type: in vivo
[4] = read-out: ED50 (dose producing 1/2 maximal stimulant activity)

For `CCCN(C)C1CC(c2ccc(Cl)c(Cl)c2)c2ccccc21` (centres unmarked) [Compound 2], the “Effect on cocaine-induced locomotor stimulation” value ([1]; 20 mg/kg cocaine IP) was “antagonized the stimulant effect of cocaine; also recorded: block cocaine induced locomotor activity”, the “Dose with significant difference against the cocaine group (planned comparisons)” value ([1]; 20 mg/kg cocaine IP, 0-30 min, p<0.05) was 30 mg/kg and the ED50 [1] was 13.8 mg/kg. For the same compound, the “Maximal Effect Relative to Cocaine” value (male Swiss-Webster mice [2]) was 0.51, the ED50 (male Swiss-Webster mice [2]; [4]) was 5.65 mg/kg and the “Period of maximal stimulant effects” value (male Swiss-Webster mice [3]; Compound 2) was 280 to 310 min. For the same compound, the “Duration of stimulant effects” value (male Swiss-Webster mice [3]; Compound 2, 3 to 30 mg/kg) was “UP TO SEVEN”, the “Maximal effect/cocaine maximal effect ratio (ME/CME)” value (male Swiss-Webster mice [3]; Compound 2, 280-310 min) was 1.4 and the “Maximum effect (horizontal activity)” value (male Swiss-Webster mice [3]; Compound 2, 280-310 min, at 12.9 mg/kg) was 4581 counts/10 min. The “Dose of maximum effect” value (male Swiss-Webster mice [3]; Compound 2, 280-310 min) was 12.9 mg/kg, the “Stimulation of locomotor activity” value (male Swiss-Webster mice [3]; Compound 2, doses from 3 to 30 mg/kg) was “time-dependent stimulation of locomotor activity” and the ED50 (male Swiss-Webster mice [3]; 310 min, Compound 2, 280-310 min, 1 to 10 mg/kg ascending portion) was 3.3 mg/kg.

`CCNC1CC(c2ccc(Cl)c(Cl)c2)c2ccccc21` (centres unmarked) [Compound 4] was tested, and the “Maximal Effect Relative to Cocaine” value (male Swiss-Webster mice [2]) was 1.07 and the ED50 (male Swiss-Webster mice [2]; [4]) was 3.9 mg/kg.

In the case of `CN(C1CC(c2ccc(Cl)c(Cl)c2)c2ccccc21)C(C)(C)C` (centres unmarked) [Compound 7], the “Effect on cocaine-induced locomotor stimulation” value ([1]; 20 mg/kg cocaine IP) is reported as “antagonized the stimulant effect of cocaine; also recorded: block cocaine induced locomotor activity”, the ED50 [1] is reported as 42.5 mg/kg and the “Effect on locomotor activity” value (male Swiss-Webster mice [2]) is reported as “inhibited locomotor activity”. The ED50 (male Swiss-Webster mice [2]; read-out: ID50 (dose producing 1/2 maximal inhibitory activity)) was 184 mg/kg.

In the case of `CCN(C)C1CC(c2ccc(Cl)c(Cl)c2)c2ccccc21` (centres unmarked) [Compound 3], the “Maximal Effect Relative to Cocaine” value (male Swiss-Webster mice [2]) is reported as 0.93 and the ED50 (male Swiss-Webster mice [2]; [4]) is reported as 10.8 mg/kg.

For `COC(=O)[C@H]1[C@@H](OC(=O)c2ccccc2)C[C@@H]2CC[C@H]1N2C` [Cocaine, reference compound], the ED50 (male Swiss-Webster mice [3]; 0.5 h) was 8.8 mg/kg, the “Duration of stimulant effects” value (male Swiss-Webster mice [3]; cocaine 10, 20 and 40 mg/kg IP) was “up to 3 hours” and the “Onset of stimulant effects following injection” value (male Swiss-Webster mice [3]; cocaine 10, 20 and 40 mg/kg IP) was no more than 10 min. The “Maximum effect (horizontal activity)” value (male Swiss-Webster mice [3]; cocaine, 0-30 min, at 18.3 mg/kg) was 6059 counts/10 min, the “Dose of maximum effect” value (male Swiss-Webster mice [3]; cocaine, 0-30 min) was 18.3 mg/kg and the “Stimulation of locomotor activity” value (male Swiss-Webster mice [3]; cocaine, doses from 10 to 40 mg/kg IP) was “time-dependent stimulation of locomotor activity”. The “Period of maximal stimulant effects” value (male Swiss-Webster mice [3]; first minutes following 20 mg/kg cocaine) was no more than 30 min, the “Control rate of responding maintained by cocaine (drug component)” value (“Control rate of responding maintained” for short) (male rhesus monkeys; 0.0032 mg/kg/inj cocaine, monkey 89B013) was 0.51 responses/sec and the “Control rate of responding maintained” value (male rhesus monkeys; 0.0032 mg/kg/inj cocaine, monkey 89B056) was 0.79 responses/sec. For the same compound, the “Control rate of responding maintained” value (male rhesus monkeys; 0.0032 mg/kg/inj cocaine, monkey J3A) was 0.57 responses/sec, the “Control rate of responding maintained” value (male rhesus monkeys; 0.01 mg/kg/inj cocaine, monkey WH8) was 0.45 responses/sec and the “Unit dose of cocaine maintaining maximal rates of self-administration” value (male rhesus monkeys; control conditions, monkey WH8) was 0.01 mg/kg/inj. The “Unit dose of cocaine maintaining maximal rates of self-administration” value (male rhesus monkeys; control conditions, monkeys 89B056 and J3A) was 0.0032 mg/kg/inj and the “Shape of dose-effect curve for cocaine self-administration” value (male rhesus monkeys; control conditions, no pretreatment) was “inverted-U shape”.

`CNC1CC(c2ccc(Cl)c(Cl)c2)c2ccccc21` (centres unmarked) [Compound 5] was tested, and the “Duration of stimulated locomotor activity / increased response rate” value (squirrel monkeys; 0.3 mg/kg Compound 5) was “two to four”, the “Number of Responses/Second” value (squirrel monkeys; 0.3 mg/kg Compound 5, Day 1, Monkey 1 (control 0.74)) was 1.29 responses/second and the “Number of Responses/Second” value (squirrel monkeys; 0.3 mg/kg Compound 5, Day 1, Monkey 2 (control 0.72)) was 0.87 responses/second. For the same compound, the “Number of Responses/Second” value (squirrel monkeys; 0.3 mg/kg Compound 5, Day 1, Monkey 3 (control 0.92)) was 1.11 responses/second, the “Number of Responses/Second” value (squirrel monkeys; 0.3 mg/kg Compound 5, Day 2, Monkey 1 (control 0.74)) was 0.99 responses/second and the “Number of Responses/Second” value (squirrel monkeys; 0.3 mg/kg Compound 5, Day 2, Monkey 2 (control 0.72)) was 1.18 responses/second. For the same compound, the “Number of Responses/Second” value (squirrel monkeys; 0.3 mg/kg Compound 5, Day 2, Monkey 3 (control 0.92)) was 1.28 responses/second, the “Number of Responses/Second” value (squirrel monkeys; 0.3 mg/kg Compound 5, Day 3, Monkey 1 (control 0.74)) was 0.75 responses/second and the “Number of Responses/Second” value (squirrel monkeys; 0.3 mg/kg Compound 5, Day 3, Monkey 2 (control 0.72)) was 0.88 responses/second. For the same compound, the “Number of Responses/Second” value (squirrel monkeys; 0.3 mg/kg Compound 5, Day 3, Monkey 3 (control 0.92)) was 1.13 responses/second, the “Number of Responses/Second” value (squirrel monkeys; 0.3 mg/kg Compound 5, Day 4, Monkey 1 (control 0.74)) was 0.79 responses/second and the “Number of Responses/Second” value (squirrel monkeys; 0.3 mg/kg Compound 5, Day 4, Monkey 2 (control 0.72)) was 0.74 responses/second. The “Number of Responses/Second” value (squirrel monkeys; 0.3 mg/kg Compound 5, Day 4, Monkey 3 (control 0.92)) was 1.01 responses/second.

With `CC(C)(C)NC1CC(c2ccc(Cl)c(Cl)c2)c2ccccc21` (centres unmarked) [Compound 6] the “Effect on cocaine-induced locomotor stimulation” value ([1]; 20 mg/kg cocaine IP) was “antagonized the stimulant effect of cocaine”, the ED50 [1] was 23.6 mg/kg and the ED50 (male Swiss-Webster mice [2]; [4]) was 506 mg/kg.

Source: US6011070A, “Slow-onset, long-lasting dopamine reuptake blockers” (priority 1997, dated 2000)
